Read-outs that look alike come from different tables or passages of the source.
What was measured:
lambsquarters = assay: Test B pre-/postemergence herbicide test; format: in vivo, Chenopodium album; details: Chenopodium album, 336 h; for pest or weed control at 125 g/ha: 125 g ai/ha; for pest or weed control at 500 g/ha: 500 g ai/ha
In short: (§1)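 Evaluation is visual, comparing treated with control plants on a scale where 0 means no effect and 100 means full control. Treatments were preemergence, or postemergence on seedlings 2–18 cm tall, and held 13–15 days in the greenhouse.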

cocklebur = assay: Test B pre-/postemergence herbicide test; format: in vivo, Xanthium strumarium; details: Xanthium strumarium; for pest or weed control at 125 g/ha: 125 g ai/ha; for pest or weed control at 500 g/ha: 500 g ai/ha
In short: (§2)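 Test chemicals in a non-phytotoxic solvent mixture with surfactant were applied preemergence to seeded species and postemergence to plants 2-18 cm tall (1- to 4-leaf stage); rice and barnyardgrass were also tested in a flooded paddy at the 2-leaf stage. Visual rating versus controls after 13-15 days in greenhouse, scale 0 (no effect) to 100 (complete control).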

wheat = assay: Test B postemergence herbicide test; format: in vivo, Triticum aestivum; details: Triticum aestivum, post-emergence, 336 h, postemergence, read-out: Wheat plant response rating
In short: (§3)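 Scale 0–100: zero equals no visible effect, 100 complete control, judged by eye relative to controls. Timing: 13 to 15 days in greenhouse post-treatment. Growth stage at spraying: two leaves (paddy) or one to four leaves, 2–18 cm (postemergence).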

pigweed = assay: Test B pre-/postemergence herbicide test; format: in vivo, Amaranthus retroflexus; details: Amaranthus retroflexus, 336 h; for pest or weed control at 125 g/ha: 125 g ai/ha; for pest or weed control at 500 g/ha: 500 g ai/ha
In short: as §1

giant foxtail = assay: Test B pre-/postemergence herbicide test; format: in vivo, Setaria faberi; details: Setaria faberi, 336 h; for pest or weed control at 125 g/ha: 125 g ai/ha; for pest or weed control at 500 g/ha: 500 g ai/ha
In short: as §1

[1] = system: small flower umbrella sedge; assay: Test B flooded paddy test; format: in vivo, Cyperus difformis; details: Cyperus difformis, 336 h, 1000 g ai/ha, scale 0 to 100 (0 no effect, 100 complete control), read-out: Sedge, Umbrella plant response rating
In short: (§4)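 Paddy species grown to the 2-leaf stage under flooding; blackgrass sprayed postemergence at 2–18 cm (1- to 4-leaf stage). Plants kept in a greenhouse for 13 to 15 days, then visually rated against controls on 0 (no effect) to 100 (complete control).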

barnyardgrass [2] = assay: Test B flooded paddy test; format: in vivo, Echinochloa crus-galli; details: Echinochloa crus-galli, 336 h, 1000 g ai/ha, scale 0 to 100 (0 no effect, 100 complete control), read-out: Barnyardgrass plant response rating
In short: as §4

morningglory = assay: Test B pre-/postemergence herbicide test; format: in vivo, Ipomoea coccinea; details: Ipomoea, 336 h; for pest or weed control at 125 g/ha: 125 g ai/ha; for pest or weed control at 500 g/ha: 500 g ai/ha
In short: as §2

corn = assay: Test B pre-/postemergence herbicide test; format: in vivo, Zea mays; details: Zea mays; for plant injury at 125 g/ha: 125 g ai/ha
In short: as §1

Surinam grass = assay: Test B pre-/postemergence herbicide test; format: in vivo, Urochloa decumbens; details: Urochloa decumbens; for pest or weed control at 125 g/ha: 125 g ai/ha; for pest or weed control at 500 g/ha: 500 g ai/ha
In short: as §1

large crabgrass = assay: Test B pre-/postemergence herbicide test; format: in vivo, Digitaria sanguinalis; details: Digitaria sanguinalis; for pest or weed control at 125 g/ha: 125 g ai/ha; for pest or weed control at 500 g/ha: 500 g ai/ha
In short: as §1

velvetleaf = assay: Test B pre-/postemergence herbicide test; format: in vivo, Abutilon theophrasti; details: Abutilon theophrasti, 336 h; for pest or weed control at 125 g/ha: 125 g ai/ha; for pest or weed control at 500 g/ha: 500 g ai/ha
In short: as §1

rice = assay: Test B flooded paddy test; format: in vivo, Oryza sativa; details: Oryza sativa, 336 h, 1000 g ai/ha, scale 0 to 100 (0 no effect, 100 complete control), read-out: Rice plant response rating
In short: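 Each value is a visual 0–100 response rating taken against controls 13 to 15 days after treatment in the greenhouse. Plants received formulated chemical postemergence at the 1- to 4-leaf stage or, in flooded paddy, at the 2-leaf stage.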

barnyardgrass [3] = assay: Test B pre-/postemergence herbicide test; format: in vivo, Echinochloa crus-galli; details: Echinochloa crus-galli; for pest or weed control at 125 g/ha: 125 g ai/ha; for pest or weed control at 500 g/ha: 500 g ai/ha
In short: as §2

wild oat = assay: Test B postemergence herbicide test; format: in vivo, Avena fatua; details: Avena fatua, post-emergence, 336 h, postemergence, read-out: Oat, Wild plant response rating
In short: as §3

[4] = 125 g ai/ha, visual rating, scale 0 (no effect) to 100 (complete control)
[5] = 500 g ai/ha, scale 0 to 100, 0 is no effect, 100 is complete control

CCn1nc(C(C)(C)C)c(F)c1C(=O)Nc1cc(C(=O)N(C)C)ccc1F [Compound 276, N-[5-[(dimethylamino)carbonyl]-2-fluorophenyl]-3-(1,1-dimethylethyl)-1-ethyl-4-fluoro-1H-pyrazole-5-carboxamide]
pest or weed control at 125 g/ha (lambsquarters; post-emergence, postemergence, visual rating, scale 0 (no effect) to 100 (complete control), read-out: Lambsquarters plant response rating): 20%
pest or weed control at 500 g/ha (lambsquarters; post-emergence, postemergence, scale 0 to 100, 0 is no effect, 100 is complete control, read-out: Lambsquarters plant response rating): 60%
pest or weed control at 125 g/ha (lambsquarters; pre-emergence, 0 = no effect, 100 = complete control, read-out: Lambsquarters plant response rating (0 to 100 scale)): 40%
pest or weed control at 500 g/ha (lambsquarters; pre-emergence, visual rating, 0 = no effect, 100 = complete control, read-out: Plant response rating, Lambsquarters): 100%
pest or weed control at 125 g/ha (cocklebur; post-emergence, postemergence, visual rating, scale 0 (no effect) to 100 (complete control), read-out: Cocklebur plant response rating): 10%
pest or weed control at 500 g/ha (cocklebur; post-emergence, postemergence, scale 0 to 100, 0 is no effect, 100 is complete control, read-out: Cocklebur plant response rating): 10%
pest or weed control at 125 g/ha (cocklebur; pre-emergence, 0 = no effect, 100 = complete control, read-out: Cocklebur plant response rating (0 to 100 scale)): 0%
pest or weed control at 500 g/ha (cocklebur; pre-emergence, visual rating, 0 = no effect, 100 = complete control, read-out: Plant response rating, Cocklebur): 30%
plant injury at 125 g/ha (wheat; [4]): 20%
plant injury at 500 g/ha (wheat; [5]): 30%
pest or weed control at 125 g/ha (pigweed; post-emergence, postemergence, visual rating, scale 0 (no effect) to 100 (complete control), read-out: Pigweed plant response rating): 40%
pest or weed control at 500 g/ha (pigweed; post-emergence, postemergence, scale 0 to 100, 0 is no effect, 100 is complete control, read-out: Pigweed plant response rating): 70%
pest or weed control at 125 g/ha (pigweed; pre-emergence, 0 = no effect, 100 = complete control, read-out: Pigweed plant response rating (0 to 100 scale)): 30%
pest or weed control at 500 g/ha (pigweed; pre-emergence, visual rating, 0 = no effect, 100 = complete control, read-out: Plant response rating, Pigweed): 100%
pest or weed control at 125 g/ha (giant foxtail; post-emergence, postemergence, visual rating, scale 0 (no effect) to 100 (complete control), read-out: Foxtail, Giant plant response rating): 10%
pest or weed control at 500 g/ha (giant foxtail; post-emergence, postemergence, scale 0 to 100, 0 is no effect, 100 is complete control, read-out: Foxtail, Giant plant response rating): 40%
pest or weed control at 125 g/ha (giant foxtail; pre-emergence, 0 = no effect, 100 = complete control, read-out: Foxtail, Giant plant response rating (0 to 100 scale)): 30%
pest or weed control at 500 g/ha (giant foxtail; pre-emergence, visual rating, 0 = no effect, 100 = complete control, read-out: Plant response rating, Foxtail, Giant): 90%
pest or weed control at 1000 g/ha [1]: 80%
pest or weed control at 1000 g/ha (barnyardgrass [2]): 70%
pest or weed control at 125 g/ha (morningglory; post-emergence, postemergence, visual rating, scale 0 (no effect) to 100 (complete control), read-out: Morningglory plant response rating): 10%
pest or weed control at 500 g/ha (morningglory; post-emergence, postemergence, scale 0 to 100, 0 is no effect, 100 is complete control, read-out: Morningglory plant response rating): 30%
pest or weed control at 125 g/ha (morningglory; pre-emergence, 0 = no effect, 100 = complete control, read-out: Morningglory plant response rating (0 to 100 scale)): 0%
pest or weed control at 500 g/ha (morningglory; pre-emergence, visual rating, 0 = no effect, 100 = complete control, read-out: Plant response rating, Morningglory): 10%
plant injury at 125 g/ha (corn; post-emergence, postemergence, visual rating, scale 0 (no effect) to 100 (complete control), read-out: Corn plant response rating): 0%
plant injury at 500 g/ha (corn; post-emergence, postemergence, 500 g ai/ha, scale 0 to 100, 0 is no effect, 100 is complete control, read-out: Corn plant response rating): 20%
plant injury at 125 g/ha (corn; pre-emergence, 0 = no effect, 100 = complete control, read-out: Corn plant response rating (0 to 100 scale)): 20%
Corn plant response rating (crop injury, 0 = no effect, 100 = complete kill) at 500 g/ha (corn; pre-emergence, 500 g ai/ha, visual rating, 0 = no effect, 100 = complete control): 60%
pest or weed control at 125 g/ha (Surinam grass; post-emergence, postemergence, visual rating, scale 0 (no effect) to 100 (complete control), read-out: Surinam Grass plant response rating): 10%
pest or weed control at 500 g/ha (Surinam grass; post-emergence, postemergence, scale 0 to 100, 0 is no effect, 100 is complete control, read-out: Surinam Grass plant response rating): 20%
pest or weed control at 125 g/ha (Surinam grass; pre-emergence, 0 = no effect, 100 = complete control, read-out: Surinam Grass plant response rating (0 to 100 scale)): 10%
pest or weed control at 500 g/ha (Surinam grass; pre-emergence, visual rating, 0 = no effect, 100 = complete control, read-out: Plant response rating, Surinam Grass): 60%
pest or weed control at 125 g/ha (large crabgrass; post-emergence, postemergence, visual rating, scale 0 (no effect) to 100 (complete control), read-out: Crabgrass, Large plant response rating): 10%
pest or weed control at 500 g/ha (large crabgrass; post-emergence, postemergence, scale 0 to 100, 0 is no effect, 100 is complete control, read-out: Crabgrass, Large plant response rating): 20%
pest or weed control at 125 g/ha (large crabgrass; pre-emergence, 0 = no effect, 100 = complete control, read-out: Crabgrass, Large plant response rating (0 to 100 scale)): 10%
pest or weed control at 500 g/ha (large crabgrass; pre-emergence, visual rating, 0 = no effect, 100 = complete control, read-out: Plant response rating, Crabgrass, Large): 70%
pest or weed control at 125 g/ha (velvetleaf; post-emergence, postemergence, visual rating, scale 0 (no effect) to 100 (complete control), read-out: Velvetleaf plant response rating): 10%
pest or weed control at 500 g/ha (velvetleaf; post-emergence, postemergence, scale 0 to 100, 0 is no effect, 100 is complete control, read-out: Velvetleaf plant response rating): 40%
pest or weed control at 125 g/ha (velvetleaf; pre-emergence, 0 = no effect, 100 = complete control, read-out: Velvetleaf plant response rating (0 to 100 scale)): 0%
pest or weed control at 500 g/ha (velvetleaf; pre-emergence, visual rating, 0 = no effect, 100 = complete control, read-out: Plant response rating, Velvetleaf): 50%
plant injury at 1000 g/ha (rice): 70%
pest or weed control at 125 g/ha (barnyardgrass [3]; post-emergence, postemergence, visual rating, scale 0 (no effect) to 100 (complete control), read-out: Barnyardgrass plant response rating): 0%
pest or weed control at 500 g/ha (barnyardgrass [3]; post-emergence, postemergence, scale 0 to 100, 0 is no effect, 100 is complete control, read-out: Barnyardgrass plant response rating): 10%
pest or weed control at 125 g/ha (barnyardgrass [3]; pre-emergence, 0 = no effect, 100 = complete control, read-out: Barnyardgrass plant response rating (0 to 100 scale)): 60%
pest or weed control at 500 g/ha (barnyardgrass [3]; pre-emergence, visual rating, 0 = no effect, 100 = complete control, read-out: Plant response rating, Barnyardgrass): 80%
pest or weed control at 125 g/ha (wild oat; [4]): 30%
pest or weed control at 500 g/ha (wild oat; [5]): 40%

From patent US20060069132A1, “Azolecarboxamide herbicides” (priority 2004, published 2006)
